Data as given in patent publication US20250051338A1, “TYK2 DEGRADERS AND USES THEREOF” (Kymera Therapeutics, Inc., priority 2021, published 2025).

What was measured:
Assay type in all cases: cell-based
[1] = target: T1, TYK2 (Homo sapiens, UniProt P29597); assay: TYK2 degradation MSD assay in EBV-B cells; parameters: endogenous in cells; host or cells: EBV-B cells; conditions: 4 to 24 hours incubation, read-out: TYK2 MSD DC50 rating in EBV-B
In short: (§1)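 Cells (0.4 million per well) were treated with a 9-point, 1:3 compound series from a top concentration of 1 to 10 μM for 4 to 24 hours at 37° C, then lysed in RIPA with protease/phosphatase inhibitors. Remaining TYK2 was quantified by sandwich MSD immunoassay; DC50 came from four-parameter nonlinear fits.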

[2] = target: T1, TYK2; assay: TYK2 degradation MSD assay in OCI-LY10 cells; parameters: endogenous in cells; host or cells: EBV-B cells; conditions: 4 to 24 hours incubation, read-out: TYK2 MSD DC50 rating in OCI-LY10
In short: as §1

[3] = target: T1, TYK2; assay: TYK2 degradation MSD assay in human PBMC cells; parameters: endogenous in cells; host or cells: human PBMC; conditions: 4 to 24 hours incubation, read-out: TYK2 MSD DC50 rating in human PBMC
In short: as §1

T1 sequence (P29597 whole entry): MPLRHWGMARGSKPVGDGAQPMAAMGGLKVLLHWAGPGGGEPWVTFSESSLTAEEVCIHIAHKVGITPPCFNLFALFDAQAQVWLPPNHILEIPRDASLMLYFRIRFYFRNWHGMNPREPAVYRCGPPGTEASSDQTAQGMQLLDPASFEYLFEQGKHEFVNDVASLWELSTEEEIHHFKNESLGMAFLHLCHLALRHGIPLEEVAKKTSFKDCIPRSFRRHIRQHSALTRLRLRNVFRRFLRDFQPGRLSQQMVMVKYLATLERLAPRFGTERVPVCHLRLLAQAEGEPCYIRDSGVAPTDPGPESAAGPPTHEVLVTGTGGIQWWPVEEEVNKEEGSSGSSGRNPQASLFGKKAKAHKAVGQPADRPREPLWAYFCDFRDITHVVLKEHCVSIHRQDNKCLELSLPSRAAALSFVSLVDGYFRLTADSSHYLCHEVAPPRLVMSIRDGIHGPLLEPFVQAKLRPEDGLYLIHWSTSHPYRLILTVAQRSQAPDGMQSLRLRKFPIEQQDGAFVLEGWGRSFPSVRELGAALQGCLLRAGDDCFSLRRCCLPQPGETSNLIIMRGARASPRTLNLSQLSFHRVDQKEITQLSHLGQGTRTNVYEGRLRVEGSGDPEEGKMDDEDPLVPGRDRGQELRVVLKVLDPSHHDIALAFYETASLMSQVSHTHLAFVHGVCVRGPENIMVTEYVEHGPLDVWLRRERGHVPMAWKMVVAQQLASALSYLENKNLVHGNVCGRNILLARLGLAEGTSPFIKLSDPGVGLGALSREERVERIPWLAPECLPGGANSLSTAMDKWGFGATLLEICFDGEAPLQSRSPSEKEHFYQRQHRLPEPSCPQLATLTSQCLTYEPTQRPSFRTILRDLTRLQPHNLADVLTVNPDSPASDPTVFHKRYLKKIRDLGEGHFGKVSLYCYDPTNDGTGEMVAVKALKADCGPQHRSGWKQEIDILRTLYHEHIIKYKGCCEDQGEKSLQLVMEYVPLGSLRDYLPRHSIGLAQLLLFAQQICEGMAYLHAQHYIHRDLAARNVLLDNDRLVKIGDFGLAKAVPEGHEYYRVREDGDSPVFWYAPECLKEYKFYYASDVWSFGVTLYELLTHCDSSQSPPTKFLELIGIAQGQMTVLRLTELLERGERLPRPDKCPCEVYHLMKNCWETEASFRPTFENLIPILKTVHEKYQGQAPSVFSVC

| SMILES | DC50 [1] [µM] | DC50 [2] [µM] | DC50 [3] [µM] |
| --- | --- | --- | --- |
| CNC(=O)c1cnc2c(NC)cc(Nc3cccc(-c4ccc(CN5CCN(c6ccc(-c7ccc8c(c7)n(C)c(=O)n8C7CCC(=O)NC7=O)cc6)CC5)cn4)c3OC)nn12 (stereo not drawn) [Example K527] | > 0.1 | 0.001 to 0.01 | > 0.1 |
| CNC(=O)c1cnc(Nc2ccc(CN3CC4(CCN(c5ccc6c(c5)n(C)c(=O)n6C5CCC(=O)NC5=O)CC4)C3)cn2)cc1Nc1cccc(-c2ncc(F)cn2)c1OC (stereo not drawn) [Example K149] | < 0.001 | > 0.1 | > 0.1 |
| CNc1cc(N2CCc3c(C4CCN(CC5CCN(c6ccc(-c7ccc8c(c7)n(C)c(=O)n8C7CCC(=O)NC7=O)cc6)CC5)CC4)cccc32)nn2c(C(=O)N[C@@H]3C[C@@H]3F)cnc12 (mixture of isomers) [Example K536] | > 0.1 | < 0.001 | > 0.1 |
| CNc1cc(-c2ccc(N3CCC(CN4CCN(c5ccc(-c6ccc7c(c6)n(C)c(=O)n7C6CCC(=O)NC6=O)cc5)CC4)CC3)cc2)nn2c(C(=O)N[C@@H]3C[C@@H]3F)cnc12 (mixture of isomers) [Example K545] | > 0.1 | > 0.1 | > 0.1 |
| CNc1cc(N2CCc3c(-c4ccc(CN5CC(C6CCN(C(=O)c7ccc(Cl)c(N8CCC(=O)NC8=O)c7)CC6)C5)cn4)cccc32)nn2c(C(=O)N[C@@H]3C[C@@H]3F)cnc12 [Example K525] | > 0.1 | < 0.001 | > 0.1 |
| CNC(=O)c1cnc(Nc2ccc(CN3CCC(OCC#Cc4cccc5c4n(C)c(=O)n5C4CCC(=O)NC4=O)CC3)cn2)cc1Nc1cccc(-c2ncc(F)cn2)c1OC (stereo not drawn) [Example K151] | < 0.001 | > 0.1 | > 0.1 |
| CNc1cc(Nc2cccc(-c3ccc(CN4CCC(N5CCN(c6ccc7c(c6)n(C)c(=O)n7C6CCC(=O)NC6=O)CC5)C(F)(F)C4)cn3)c2OC)nn2c(C(=O)NC3CC3F)cnc12 (stereo not drawn) [Example K660] | > 0.1 | < 0.001 | > 0.1 |
| CNC(=O)c1cnc(Nc2ccc(CN(C)CCCOC3CC(c4cccc5c4n(C)c(=O)n5C4CCC(=O)NC4=O)C3)cn2)cc1Nc1cccc(-c2ncc(F)cn2)c1OC (stereo not drawn) [Example K158] | < 0.001 | > 0.1 | > 0.1 |
| CNC(=O)c1cnc(Nc2cc(C(=O)NCCCCCCCCc3cccc4c3n(C)c(=O)n4C3CCC(=O)NC3=O)ccn2)cc1Nc1cccc(-c2ncc(F)cn2)c1OC (stereo not drawn) [Example K130] | 0.001 to 0.01 | > 0.1 | 0.001 to 0.01 |
| CNc1cc(Nc2cccn(C3CCN(C(=O)COCCOCCOCCOCCc4ccc5c(c4)n(C)c(=O)n5C4CCC(=O)NC4=O)CC3)c2=O)nn2c(C(=O)N[C@@H]3C[C@@H]3F)cnc12 (stereo partly drawn) [Example K276] | > 0.1 | > 0.1 | 0.01 to 0.1 |
| CNc1cc(Nc2cccn(-c3ccc(C(=O)N4CCC5(CC4)CC(Cc4ccc6c(c4)n(C)c(=O)n6C4CCC(=O)NC4=O)C5)cn3)c2=O)nn2c(C(=O)N[C@@H]3C[C@@H]3F)cnc12 (stereo partly drawn) [Example K391] | < 0.001 | > 0.1 | < 0.001 |
| CNC(=O)c1cnc(Nc2ccc(CN3CCC(c4cccc5c4n(C)c(=O)n5C4CCC(=O)NC4=O)C3)cn2)cc1Nc1cccc(-c2ncc(F)cn2)c1OC (stereo not drawn) [Example K165] | 0.001 to 0.01 | > 0.1 | > 0.1 |
| CNc1cc(Nc2cccc(CN3CC4(C3)CN(c3ccc(-c5ccc6c(c5)n(C)c(=O)n6C5CCC(=O)NC5=O)cc3)C4)c2OC)nn2c(C(=O)N[C@@H]3C[C@@H]3F)cnc12 (stereo partly drawn) [Example K610] | > 0.1 | > 0.1 | > 0.1 |
| CNC(=O)c1cnc(Nc2ccc(CN3CCC(CC#Cc4cccc5c4n(C)c(=O)n5C4CCC(=O)NC4=O)CC3)cn2)cc1Nc1cccc(-c2ncc(F)cn2)c1OC (stereo not drawn) [Example K136] | < 0.001 | > 0.1 | 0.001 to 0.01 |
| CNc1cc(Nc2cccn(-c3ccc(C(=O)N(C)C4CCN(Cc5cccc6c5n(C)c(=O)n6C5CCC(=O)NC5=O)CC4)cn3)c2=O)nn2c(C(=O)N[C@@H]3C[C@@H]3F)cnc12 (stereo partly drawn) [Example K279] | > 0.1 | > 0.1 | < 0.001 |
| CNc1cc(Nc2cccn(-c3ccc(C(=O)N4CC(CN5CCC(c6cccc7c6n(C)c(=O)n7C6CCC(=O)NC6=O)CC5)C4)cn3)c2=O)nn2c(C(=O)N[C@@H]3C[C@@H]3F)cnc12 (stereo partly drawn) [Example K450] | > 0.1 | < 0.001 | > 0.1 |
| Cc1cc(C)cc(Nc2cc(NCCCCCCCCc3ccc4c(c3)n(C)c(=O)n4C3CCC(=O)NC3=O)c3ncc(C(=O)N[C@@H]4C[C@@H]4F)n3n2)c1 (stereo partly drawn) [Example K400] | > 0.1 | > 0.1 | > 0.1 |
